Earlier results on 1 compound are cited in patent EP0426167A2, “Antitumor substance, process for preparing the same, and pharmaceutical composition containing the same” (MEIJI SEIKA KAISHA LTD., priority 1989, dated 1991).

In data set [1] the test system is P388 tumor cells. The note with it: result in words; cited from earlier work.
In data set [2] the test system is P388 tumor cells. The note with it: result in words; cited from earlier work. This is another data set of the same source.
For data set [3] the following is noted: mouse, i.p.; cited from earlier work.

Turning to `Cc1cc2c(c3oc(C4(C)OC4C4OC4C)cc(=O)c13)C(=O)c1c(ccc(C3CC(C)(N(C)C)C(O)C(C)O3)c1O)C2=O` (stereo not drawn) [SF2587 substance], the “inhibitory activity on P388 tumor cells” value with P388 tumor cells [1] was “considerable inhibitory activity”. In addition, the “therapeutic effects in mice transplanted with P388 tumor cells” value with P388 tumor cells [2] is “excellent therapeutic, effects”. Further, the LD₅₀ in data set [3] was 0.5 to 1 mg/kg.
